Data as given in US20160332971A1, “ARYLQUINOLINE, ARYLQUINOLONE AND ARYLTHIOQUINOLONE DERIVATIVES AND USE THEREOF TO TREAT CANCER” (UNIVERSITY OF KENTUCKY RESEARCH FOUNDATION, priority 2015, published 2016).
Read-outs that look alike come from different tables or passages of the source.

What was measured:
[1] = system: Par-4 secretion from mouse fibroblasts; assay: Par-4 secretion into conditioned medium, quantitative Western blot normalised to CollA1; type: cell-based; conditions: for Relative Levels of Par-4 Secretion by Arylquins Administered at 500 nM / fold induction at 0.5 µM: 24 h; for Relative Levels of Par-4 Secretion by Arylquins Administered at 500 nM: mouse fibroblasts, CM; for fold induction at 0.5 µM: Mus musculus, Fibroblast, read-out: Ratio of Par-4 Secretion by Arylquin 1 Relative to Vehicle; for Par-4 secretory activity (in words): SAR discussion
Protocol: Calibration curve developed using fixed amounts (0.05-5 ng) of recombinant TRX-Par-4. […] Therefore the concentration was 0.82 ng/40 μL or 540 pM, In the same fashion, calculation for Par-4 concentration using vehicle (v) was 280 pM.
Biological activity of 3-Arylquinolines. […] After 24 h exposure, the CM and lysates were subjected to quantitative Western blot analysis for Par-4 and collagen (CollA1).
Co-immunoprecipitation and Western blot analysis. Protein extracted from cell lysates was filtered, pre-cleared with 25 μL (bed volume) of protein G-Sepharose beads and immunoprecipitated with 1 μg of respective antibodies. The eluted proteins were resolved by SDS-PAGE, and subjected to Western blot analysis as described previously. Bensch, et al. Nature 1968, 218(5147):1176-1177.
Statistical analyses. All experiments were performed in triplicate to verify the reproducibility of the findings. […] Statistical analyses were carried out with Statistical Analysis System software (SAS Institute, Cary, N.C.) and P values were calculated using the Student t test.

Molecule | Relative Levels of Par-4 Secretion by Arylquins Administered at 500 nM ([1]; Table 2) | Par-4 secretory activity (in words) ([1]; 500 nM) | melting point [°C] | Relative Levels of Par-4 Secretion by Arylquins Administered at 500 nM ([1]; Table 1) | further results
Nc1nc2cccc(Br)c2cc1-c1ccccc1F [Arylquin 15d, 5-Bromo-3-(2-fluorophenyl)quinolin-2-amine] | 44.6 | lower Par-4 secretory activity | 209 to 210 |  | fold induction at 0.5 µM ([1]; 500 nM, Table 2): 1.5
CN(C)c1ccc2cc(-c3ccccc3F)c(=O)[nH]c2c1 [Arylquin 9] | 33.2 ± 0.9 | diminished Par-4 secretory activity relative to arylquinoline 1a |  |  | Ratio of Par-4 Secretion by Arylquin 1 Relative to Vehicle ([1]; 500 nM, Table 2): 1.1
CN(C)c1ccc2cc(-c3cc(F)ccc3F)c(N)nc2c1 [Arylquin 1k, 3-(2,5-Difluorophenyl)-N^7,N^7-dimethylquinoline-2,7-diamine] |  | equipotent to the original arylquinoline 1a |  | 86.2 ± 7.5 | fold induction at 0.5 µM ([1]; 500 nM, Table 1): 2.9
COc1ccc2cc(-c3ccccc3F)c(N)nc2c1 [Arylquin 15g, 3-(2-Fluorophenyl)-7-methoxyquinolin-2-amine] | <50 | reduced activity | 114 to 116 |  | 
CN(C)c1ccc2cc(-c3cccc(F)c3F)c(N)nc2c1 [Arylquin 1h, 3-(2,3-Difluorophenyl)-N^7,N^7-dimethylquinoline-2,7-diamine] |  | equipotent to the original arylquinoline 1a |  | 93.2 ± 10.6 | fold induction at 0.5 µM ([1]; 500 nM, Table 1): 3.1
CN(C)c1ccc2cc3c(nc(N)c4ccccc43)nc2c1 [Arylquin 6, N^9,N^9-Dimethyldibenzo[b,f][1,8]naphthyridine-5,9-diamine] |  | biologically inactive | > 250 |  | 
Nc1nc2cccc(F)c2cc1-c1ccccc1F [Arylquin 15b, 5-Fluoro-3-(2-fluorophenyl)quinolin-2-amine] | 83.4 | equipotent to 15a | 142 to 143 |  | fold induction at 0.5 µM ([1]; 500 nM, Table 2): 2.8
Nc1nc2cccc(Cl)c2cc1-c1ccccc1F [Arylquin 15c, 5-Chloro-3-(2-fluorophenyl)quinolin-2-amine] | 63.2 ± 20.5 | lower Par-4 secretory activity | 194 to 196 |  | fold induction at 0.5 µM ([1]; 500 nM, Table 2): 2.1
CN(C)c1ccc2cc(-c3ccc(Cl)cc3)c(N)nc2c1 [Arylquin 1g, 3-(4-Chlorophenyl)-N^7,N^7-dimethylquinoline-2,7-diamine] |  | no improvement | 169 to 170 |  | 
3-(2,5-Difluorophenyl)-N^7,N^7-dimethylquinoline-2,7-diamine [Arylquin 1l] |  |  |  | 64.9 ± 13.1 | 
CN(C)c1ccc2cc(-c3ccccc3F)c(Cl)nc2c1 [Arylquin 12, 2-Chloro-3-(2-fluorophenyl)-N,N-dimethylquinolin-7-amine] | 104.5 ± 26.9 | activity comparable to but not exceeding that of arylquinoline 1a |  |  | fold induction at 0.5 µM ([1]; 500 nM, Table 2): 3.5
CN(C)c1ccc2cc3c(nc2c1)[nH]c(=O)c1ccccc13 [Arylquin 7, 9-(Dimethylamino)dibenzo[b,f][1,8]naphthyridin-5(6H)-one] |  | biologically inactive | > 250 |  | 
Nc1nc2ccc(Cl)cc2cc1-c1ccccc1F [Arylquin 15e, 6-Chloro-3-(2-fluorophenyl)quinolin-2-amine] | 81.9 ± 11.2 | equipotent to 15a | 138 to 139 |  | fold induction at 0.5 µM ([1]; 500 nM, Table 2): 2.8
CN(C)c1ccc2cc(-c3c(F)cccc3F)c(N)nc2c1 [Arylquin 1m, 3-(2,6-Difluorophenyl)-N^7,N^7-dimethylquinoline-2,7-diamine] |  | did not lead to improved activity | 148 to 150 | 44.6 ± 4.6 | fold induction at 0.5 µM ([1]; 500 nM, Table 1): 1.5
CN(C)c1ccc2cc(-c3cc(F)cc(F)c3)c(N)nc2c1 [Arylquin 1o, 3-(3,5-Difluorophenyl)-N^7,N^7-dimethylquinoline-2,7-diamine] |  | diminished activity relative to 1a | 160 to 162 | 47.4 ± 16.8 | 
CN(C)c1ccc2cc(-c3ccc(F)cc3F)c(N)nc2c1 [Arylquin 1j, 3-(2,4-Difluorophenyl)-N^7,N^7-dimethylquinoline-2,7-diamine] |  | equipotent to the original arylquinoline 1a | 174 to 175 | 80.8 ± 3.0 | fold induction at 0.5 µM ([1]; 500 nM, Table 1): 2.7
Nc1nc2cc(Cl)ccc2cc1-c1ccccc1F [Arylquin 15f, 7-Chloro-3-(2-fluorophenyl)quinolin-2-amine] | <50 | reduced activity | 178 to 180 |  | 
CN(C)c1ccc2cc(-c3ccc(F)c(F)c3)c(N)nc2c1 [Arylquin 1n, 3-(3,4-Difluorophenyl)-N^7,N^7-dimethylquinoline-2,7-diamine] |  | diminished activity relative to 1a | 163 to 164 | 58.4 ± 14.1 | fold induction at 0.5 µM ([1]; 500 nM, Table 1): 2
CCOC(=O)c1cn2c(n1)c(-c1ccccc1F)cc1ccc(N(C)C)cc12 [Arylquin 8b] |  | little Par-4 secretory activity |  |  | 
Nc1nc2cc(C(=O)O)ccc2cc1-c1ccccc1F [Arylquin 15h, 2-Amino-3-(2-fluorophenyl)quinoline-7-carboxylic add] | <50 | reduced activity |  |  | 
CN(C)c1ccc2cc(-c3cccc(Cl)c3)c(N)nc2c1 [Arylquin 1e, 3-(3-Chlorophenyl)-N^7,N^7-dimethylquinoline-2,7-diamine] |  | no improvement | 144 to 145 | 78.3 ± 15.3 | fold induction at 0.5 µM ([1]; 500 nM, Table 1): 2.6
CN(C)c1ccc2cc(-c3ccccc3Cl)c(N)nc2c1 [Arylquin 1b, 3-(2-Chlorophenyl)-N^7,N^7-dimethylquinoline-2,7-diamine] |  | comparable in activity | 147 to 148 |  | 
CSc1nc2cc(N(C)C)ccc2cc1-c1ccccc1F [Arylquin 11, 3-(2-Fluorophenyl)-N,N-dimethyl-2-(methylthio)quinolin-7-amine] | 75.4 ± 7.0 | diminished activity to varying degrees |  |  | fold induction at 0.5 µM ([1]; 500 nM, Table 2): 2.5
CN(C)c1ccc2cc(-c3ccccc3Br)c(N)nc2c1 [Arylquin 1c, 3-(2-Bromophenyl)-N^7,N^7-dimethylquinoline-2,7-diamine] |  | diminished activity | 159 to 160 | 33.6 ± 14.8 | 
CN(C)c1ccc2cc(-c3ccccc3F)c(N)nc2c1 [Arylquin 1a] |  | superior in potency |  |  | increase in Par-4 concentrations in the CM from basal levels ([1]; 500 nM, vs vehicle alone): two-fold increase; Par-4 concentration in the CM ([1]; 500 nM, calibration with recombinant TRX-Par-4 (FIG. 3), vehicle 280 pM): 540 pM
3-(2,3-Difluorophenyl)-N^7,N^7-dimethylquinoline-2,7-diamine [Arylquin 1i] |  | comparable to 1a, 1b and 1h |  | 88.4 ± 1.3 | 
CN1CCN(c2nc3cc(N(C)C)ccc3cc2-c2ccccc2F)CC1 [Arylquin 13b, 3-(2-Fluorophenyl)-N,N-dimethyl-2-(4-methylpiperazin-1-yl)quinolin-7-amine] | 65.6 ± 3.6 | diminished activity to varying degrees |  |  | fold induction at 0.5 µM ([1]; 500 nM, Table 2): 2.2
